According to the supplement of paper PMC4862054:

Experiments:
Experiment in all cases: normalised response (% of control), CellTiter-Glo; higher = more viable cells (100 = DMSO, 0 = benzethonium chloride kill control)
Conditions in all cases: incubation time: 72 h
[1] = system: MDA-MB-468
Method in brief: (§1)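 Breast cancer cell lines (20 µl suspension) were seeded into 384-well plates holding compound at 5 concentrations in 10-fold steps over a compound-specific 10,000-fold range, then incubated 72 h. CellTox Green fluorescence (485/520 nm) was read first, then CellTiter-Glo luminescence after 10 min at room temperature. Each plate was normalised to 0.1 % DMSO (100) and a positive kill control (0). Each value is the normalised signal at a single concentration of the series.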

[2] = system: HCC1143
Method in brief: as §1

[3] = system: MFM-223
Method in brief: as §1

[4] = system: CAL-51
Method in brief: as §1

[5] = system: BT-474
Method in brief: as §1

[6] = system: MCF-10A
Method in brief: as §1

[7] = system: SK-BR-3
Method in brief: as §1

[8] = system: CAL-148
Method in brief: as §1

[9] = system: CAL-120
Method in brief: as §1

[10] = system: HCC1599
Method in brief: as §1

[11] = system: BT-549
Method in brief: as §1

[12] = system: CAL-85-1
Method in brief: as §1

[13] = system: DU-4475
Method in brief: as §1

[14] = system: HDQ-P1
Method in brief: as §1

[15] = system: MDA-MB-436
Method in brief: as §1

[16] = system: HCC1937
Method in brief: as §1

[17] = system: Hs578T
Method in brief: as §1

[18] = system: MDA-MB-453
Method in brief: as §1

[19] = system: MDA-MB-231
Method in brief: as §1

Row | Compound | normalised response [1] | normalised response [2] | normalised response [3] | normalised response [4] | normalised response [5] | normalised response [6] | normalised response [7] | normalised response [8] | normalised response [9] | normalised response [10] | normalised response [11] | normalised response [12] | normalised response [13] | normalised response [14] | normalised response [15] | normalised response [16] | normalised response [17] | normalised response [18] | normalised response [19]
1 | CCS(=O)(=O)c1cccc(-c2cc(C(=O)NC3CCN(C)CC3)c(C)c3[nH]c4ncc(C)cc4c23)c1 [TAK-901] (1 nM) | 110% | 108% | 112% | 87.8% | 98.5% | 113% | 100% | 108% | 98.1% | 117% | 101% | 98% | 108% | 96% | 95.5% | 94.2% | 103% | 97% | 101%
2 | Cc1cc(C(C)Nc2ccccc2)c2nc(N3CCOCC3)cc(=O)n2c1 (configuration not stated) [TGX-221] (1 nM) | 92.8% | 93.8% | 101% | 109% | 93.1% | 96.5% | 97% | 95.5% | 95.8% | 89.6% | 99.4% | 92.1% | 95.2% | 96.2% | 84% | 97.6% | 98.4% | 98.5% | 92.7%
3 | Cc1cc(C(C)Nc2ccccc2)c2nc(N3CCOCC3)cc(=O)n2c1 (configuration not stated) [TGX-221] (10 nM) | 94.7% | 102% | 96.3% | 96.5% | 92.5% | 92.3% | 93.2% | 95% | 94.5% | 98.4% | 95.2% | 98.2% | 97.9% | 95.4% | 98% | 98.8% | 97.6% | 98.6% | 92.2%
4 | COc1cc(Nc2ncc(F)c(Nc3ccc4c(n3)NC(=O)C(C)(C)O4)n2)cc(OC)c1OC [Tamatinib] (1 nM) | 101% | 108% | 108% | 105% | 98.5% | 111% | 112% | 102% | 102% | 114% | 101% | 97.9% | 106% | 101% | 105% | 98.5% | 111% | 121% | 107%
5 | COc1cc(Nc2ncc(F)c(Nc3ccc4c(n3)NC(=O)C(C)(C)O4)n2)cc(OC)c1OC [Tamatinib] (10 nM) | 97.6% | 108% | 111% | 98.3% | 100% | 107% | 100% | 105% | 102% | 95.1% | 101% | 103% | 106% | 103% | 95.9% | 102% | 113% | 108% | 107%
6 | C[C@@H]1CCN(C(=O)CC#N)C[C@@H]1N(C)c1ncnc2[nH]ccc12 [Tofacitinib] (0.5 nM) | 103% | 98% | 103% | 71.3% | 106% | 111% | 113% | 113% | 99% | 102% | 95.6% | 107% | 117% | 103% | 102% | 97.3% | 100% | 103% | 104%
7 | CCCC(CCC)C(=O)O [Valproic acid] (100 nM) | 97.1% | 102% | 95.5% | 103% | 98.9% | 101% | 95.8% | 102% | 103% | 88.9% | 99.7% | 97.1% | 96.2% | 101% | 106% | 96.4% | 104% | 109% | 105%
8 | FC(F)c1nc2ccccc2n1-c1nc(N2CCOCC2)nc(N2CCOCC2)n1 [ZSTK474] (1 nM) | 100% | 96.8% | 99% | 81.5% | 98.8% | 106% | 97.7% | 96.8% | 97.7% | 101% | 104% | 92.5% | 96.6% | 101% | 97.9% | 100% | 102% | 106% | 99.7%
